Data taken from PubChem BioAssay AID330 (DTP/NCI, 2004).
Where “and” joins values, the source holds several entries; their conditions need not be identical. Identical values can stand only once. Toxic doses and inconclusive results are not listed.

Test system: P388 leukemia ip, CD2F1 mice, survival T/C
Assay: NCI In Vivo Anticancer Drug Screen. Data for tumor model P388 Leukemia (intraperitoneal) in CD2F1 (CDF1) mice
Details: endpoint: median survival time, higher = longer survival
Procedure, shortened: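 Mice carrying the transplanted tumor received test compound or vehicle. Survival was recorded in each group, and the value is the treated-group measurement divided by that of the vehicle-treated control group.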

[1] = dose: 12.5 mg/kg/injection, schedule: Q01DX009 (ip), vehicle: distilled water + Tween-80
[2] = dose: 25.0 mg/kg/injection, schedule: Q01DX009 (ip), vehicle: distilled water + Tween-80
[3] = dose: 50.0 mg/kg/injection, schedule: Q01DX009 (ip), vehicle: distilled water + Tween-80
[4] = dose: 100.0 mg/kg/injection, schedule: Q01DX009 (ip), vehicle: distilled water + Tween-80
[5] = dose: 60.0 mg/kg/injection, schedule: Q01DX005 (ip), vehicle: saline with Tween-80
[6] = dose: 120.0 mg/kg/injection, schedule: Q01DX005 (ip), vehicle: saline with Tween-80
[7] = dose: 240.0 mg/kg/injection, schedule: Q01DX005 (ip), vehicle: saline with Tween-80
[8] = dose: 50.0 mg/kg/injection, schedule: Q01DX005 (ip), vehicle: saline with Tween-80
[9] = dose: 100.0 mg/kg/injection, schedule: Q01DX005 (ip), vehicle: saline with Tween-80
[10] = dose: 200.0 mg/kg/injection, schedule: Q01DX005 (ip), vehicle: saline with Tween-80
[11] = dose: 100.0 mg/kg/injection, schedule: Q04DX003 (ip), vehicle: Klucel (hydroxypropylcellulose) (HPC)
[12] = dose: 100.0 mg/kg/injection, schedule: Q01DX001 (ip), vehicle: Klucel (hydroxypropylcellulose) (HPC)
[13] = dose: 200.0 mg/kg/injection, schedule: Q01DX001 (ip), vehicle: Klucel (hydroxypropylcellulose) (HPC)
[14] = dose: 400.0 mg/kg/injection, schedule: Q01DX001 (ip), vehicle: Klucel (hydroxypropylcellulose) (HPC)
[15] = dose: 25.0 mg/kg/injection, schedule: Q01DX009 (ip), vehicle: Klucel (hydroxypropylcellulose) (HPC)
[16] = dose: 50.0 mg/kg/injection, schedule: Q01DX009 (ip), vehicle: Klucel (hydroxypropylcellulose) (HPC)
[17] = dose: 100.0 mg/kg/injection, schedule: Q01DX009 (ip), vehicle: Klucel (hydroxypropylcellulose) (HPC)
[18] = dose: 50.0 mg/kg/injection, schedule: Q01DX009 (ip), vehicle: saline
[19] = dose: 100.0 mg/kg/injection, schedule: Q01DX009 (ip), vehicle: saline
[20] = dose: 200.0 mg/kg/injection, schedule: Q04DX003 (ip), vehicle: saline with Tween-80
[21] = dose: 12.5 mg/kg/injection, schedule: Q01DX009 (ip), vehicle: other
[22] = dose: 25.0 mg/kg/injection, schedule: Q01DX009 (ip), vehicle: other
[23] = dose: 50.0 mg/kg/injection, schedule: Q01DX009 (ip), vehicle: other
[24] = dose: 100.0 mg/kg/injection, schedule: Q01DX009 (ip), vehicle: other
[25] = dose: 200.0 mg/kg/injection, schedule: Q01DX009 (ip), vehicle: other
[26] = dose: 200.0 mg/kg/injection, schedule: Q01DX009 (ip), vehicle: saline
[27] = dose: 60.0 mg/kg/injection, schedule: Q01DX005 (ip), vehicle: saline
[28] = dose: 120.0 mg/kg/injection, schedule: Q01DX005 (ip), vehicle: saline
[29] = dose: 240.0 mg/kg/injection, schedule: Q01DX005 (ip), vehicle: saline

## CC(=O)NCCc1nc(-c2nc(C(=O)NCCC(C)C)cs2)cs1
[1]
  T/C: 92 % of control
[2]
  T/C: 94 % of control
[3]
  T/C: 98 % of control
[4]
  T/C: 102 % of control
dose: 200.0 mg/kg/injection, schedule: Q01DX009 (ip), vehicle: distilled water + Tween-80
  T/C: 115 % of control

## O=C(O)c1cscn1.O=C(O)c1cscn1.O=C(O)c1cscn1.O=C(O)c1cscn1.[Cl][Rh][Cl]
dose: 50.0 mg/kg/injection, schedule: Q01DX005 (ip), vehicle: saline + alcohol
  T/C: 101 % of control
dose: 100.0 mg/kg/injection, schedule: Q01DX005 (ip), vehicle: saline + alcohol
  T/C: 107 % of control
dose: 200.0 mg/kg/injection, schedule: Q01DX005 (ip), vehicle: saline + alcohol
  T/C: 104 % of control

## CC1OC(Oc2c(-c3ccc(O)c(O)c3O)oc3cc(O)ccc3c2=O)C(O)C(O)C1O (stereo unspecified)
[5]
  T/C: 102 % of control
[6]
  T/C: 98 % of control
[7]
  T/C: 99 % of control

## CN(CCN1C(=O)c2cccc3cc(N)cc(c23)C1=O)CCN1C(=O)c2cccc3cc(N)cc(c23)C1=O
[8]
  T/C: 112 % of control
[9]
  T/C: 106 % of control
[10]
  T/C: 107 % of control

## CNCCCCc1cc(-c2ccc([N+](=O)[O-])cc2)n[nH]1
[11]
  T/C: 105 % of control

## COc1ccc2c(C)c[nH]c2c1
dose: 100.0 mg/kg/injection, schedule: Q01DX001 (ip), vehicle: saline with Tween-80
  T/C: 100 % of control
dose: 200.0 mg/kg/injection, schedule: Q01DX001 (ip), vehicle: saline with Tween-80
  T/C: 118 % of control
dose: 400.0 mg/kg/injection, schedule: Q01DX001 (ip), vehicle: saline with Tween-80
  T/C: 100 % of control

## C1CCC2(CC1)OCCCO2
[12]
  T/C: 94 % of control
[13]
  T/C: 99 % of control
[14]
  T/C: 107 % of control

## CN1CC2CC3=C(CCC45CC6C(C=C34)C63CCC4(CC67CCC8C9(C)CCCC8%10C(C6CC4CC7%10)N(C)C9)OC53)C(C)(C2)C1 (stereo unspecified)
dose: 12.5 mg/kg/injection, schedule: Q01DX009 (ip), vehicle: Klucel (hydroxypropylcellulose) (HPC)
  T/C: 93 % of control
[15]
  T/C: 103 % of control
[16]
  T/C: 111 % of control

## O=[N+]([O-])c1ccc(N/N=C\C2OC3O[C@@H](C(Cl)(Cl)Cl)OC3C2O)c([N+](=O)[O-])c1 (stereo partly specified)
dose: 200.0 mg/kg/injection, schedule: Q04DX002 (ip), vehicle: saline with Tween-80
  T/C: 87 % of control

## CCNC(=O)NS(=O)(=O)c1ccc(Sc2ccc(Cl)cc2)nc1
[5]
  T/C: 102 % of control
[6]
  T/C: 105 % of control
[7]
  T/C: 95 % of control

## CC(C)N1CCC(OC(=O)Nc2ccccc2)C1 (stereo unspecified)
[16]
  T/C: 100 % of control
[17]
  T/C: 99 % of control
dose: 200.0 mg/kg/injection, schedule: Q01DX009 (ip), vehicle: Klucel (hydroxypropylcellulose) (HPC)
  T/C: 98 % of control

## O=C1c2ccccc2NC1c1ccc2ccccc2n1 (stereo unspecified)
[15]
  T/C: 94 % of control
[16]
  T/C: 93 % of control
[17]
  T/C: 86 % of control

## NNC(=O)CNC(=O)Nc1cccc(C(F)(F)F)c1
dose: 50.0 mg/kg/injection, schedule: Q01DX009 (ip), vehicle: saline with Tween-80
  T/C: 100 % of control
dose: 100.0 mg/kg/injection, schedule: Q01DX009 (ip), vehicle: saline with Tween-80
  T/C: 92 % of control
dose: 200.0 mg/kg/injection, schedule: Q01DX009 (ip), vehicle: saline with Tween-80
  T/C: 100 % of control

## CC(=O)NCc1cc(C)c(CC#N)cc1CC#N
dose: 6.25 mg/kg/injection, schedule: Q01DX009 (ip), vehicle: distilled water + Tween-80
  T/C: 100 % of control
[1]
  T/C: 89 % of control and 91 % of control
[2]
  T/C: 103 % of control
[3]
  T/C: 94 % of control
[4]
  T/C: 94 % of control

## Cn1nnn(Cc2ccccc2)/c1=N/C(=S)Nc1ccccc1
[12]
  T/C: 99 % of control
[13]
  T/C: 95 % of control
[14]
  T/C: 86 % of control

## O=c1c2[nH]c3ccccc3sc=2c(=O)n1-c1ccccc1Cl
[8]
  T/C: 98 % of control
[6]
  T/C: 98 % of control
[10]
  T/C: 97 % of control

## Cc1ccc(N)c2ccccc12
[18]
  T/C: 117 % of control
[19]
  T/C: 112 % of control

## Clc1ccc2[nH]c3c(c2c1)CCCC3
[20]
  T/C: 94 % of control

## O=NN(CC(=O)OCc1ccccc1)OCc1ccccc1
[21]
  T/C: 101 % of control
[22]
  T/C: 104 % of control
[23]
  T/C: 102 % of control
[24]
  T/C: 108 % of control
[25]
  T/C: 100 % of control

## COc1ccc([N+](=O)[O-])c2ccc(C(=O)O)nc12
dose: 50.0 mg/kg/injection, schedule: Q01DX005 (ip), vehicle: saline
  T/C: 103 % of control
dose: 100.0 mg/kg/injection, schedule: Q01DX005 (ip), vehicle: saline
  T/C: 97 % of control
dose: 200.0 mg/kg/injection, schedule: Q01DX005 (ip), vehicle: saline
  T/C: 110 % of control

## CC(C)(Br)C(=O)N1CCN(C(c2ccccc2)c2ccccc2)CC1
[5]
  T/C: 92 % of control
[6]
  T/C: 91 % of control
[7]
  T/C: 89 % of control

## C=CCN=C(NC#N)SC
[16]
  T/C: 103 % of control
[17]
  T/C: 111 % of control

## O=S(=O)(O)O.[NH-]CC([NH-])c1ccccc1.[Pt+2] (stereo unspecified)
dose: 6.25 mg/kg/injection, schedule: Q04DX002 (ip), vehicle: saline with Tween-80
  T/C: 184 % of control
dose: 12.5 mg/kg/injection, schedule: Q04DX002 (ip), vehicle: saline with Tween-80
  T/C: 88 % of control

## O=[N+]([O-])c1ccc(-n2[nH]nnc2=S)cc1
dose: 50.0 mg/kg/injection, schedule: Q04DX003 (ip), vehicle: saline with Tween-80
  T/C: 98 % of control and 104 % of control
dose: 100.0 mg/kg/injection, schedule: Q04DX003 (ip), vehicle: saline with Tween-80
  T/C: 100 % of control and 104 % of control
[20]
  T/C: 98 % of control and 91 % of control

## O=[N+]([O-])c1ccc(Br)cc1
[18]
  T/C: 106 % of control
[19]
  T/C: 108 % of control
[26]
  T/C: 101 % of control

## OC1CNCc2cc3c(cc21)OCO3 (stereo unspecified)
[27]
  T/C: 110 % of control
[28]
  T/C: 107 % of control
[29]
  T/C: 100 % of control

## COc1ccc2c(c1)nc(/C(C(=O)C(=O)c1ccccc1)=C(\O)c1ccccc1)c(C)[n+]2[O-]
[27]
  T/C: 103 % of control
[28]
  T/C: 104 % of control
[29]
  T/C: 100 % of control

## CC(O)C(NC(=O)C(Cc1ccc(O)cc1)NC(=O)C(CCCCN)N(C(=O)OCc1ccccc1)C(=O)OCc1ccccc1)C(=O)OCc1ccccc1 (stereo unspecified)
[8]
  T/C: 94 % of control
[9]
  T/C: 92 % of control
[10]
  T/C: 93 % of control

## O=S(=O)(Cc1ccccc1)Oc1ccccc1
[11]
  T/C: 109 % of control
dose: 200.0 mg/kg/injection, schedule: Q04DX003 (ip), vehicle: Klucel (hydroxypropylcellulose) (HPC)
  T/C: 103 % of control
dose: 400.0 mg/kg/injection, schedule: Q04DX003 (ip), vehicle: Klucel (hydroxypropylcellulose) (HPC)
  T/C: 94 % of control

## C#C/C=C/CC1OC(C(Br)CC)CC(OC(C)=O)C(Cl)CC1Cl (stereo unspecified)
dose: 3.75 mg/kg/injection, schedule: Q01DX005 (ip), vehicle: Klucel (hydroxypropylcellulose) (HPC)
  T/C: 97 % of control
dose: 7.5 mg/kg/injection, schedule: Q01DX005 (ip), vehicle: Klucel (hydroxypropylcellulose) (HPC)
  T/C: 120 % of control
dose: 15.0 mg/kg/injection, schedule: Q01DX005 (ip), vehicle: Klucel (hydroxypropylcellulose) (HPC)
  T/C: 100 % of control
dose: 30.0 mg/kg/injection, schedule: Q01DX005 (ip), vehicle: Klucel (hydroxypropylcellulose) (HPC)
  T/C: 98 % of control

## COC1OCC(NC(=O)c2ccccc2)C(OS(C)(=O)=O)C1OS(C)(=O)=O (stereo unspecified)
[21]
  T/C: 97 % of control
[22]
  T/C: 87 % of control
[23]
  T/C: 106 % of control
[24]
  T/C: 95 % of control
[25]
  T/C: 88 % of control

## COC[n+]1cccc(C2CCC[N+]2(C)C)c1 (stereo unspecified)
[18]
  T/C: 101 % of control
[19]
  T/C: 107 % of control
[26]
  T/C: 114 % of control
